We go through 19 compounds from US11753395B2 (Kinnate Biopharma Inc., priority 2021, dated 2023).

The target of test [1] is T1, MET (Homo sapiens, UniProt P08581).
T1 construct: purchased Carna Biosciences 08-151
The experiment in a line: MET Mobility Shift Assay. Conditions: biochemical assay IC50; 100 μM ATP, 60 minute kinase reaction. Put shortly: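 Recombinant MET at 0.625 nM was pre-incubated 30 min at room temperature with 1.5 μM FLPeptide30 and 10 mM MgCl2 in HEPES buffer with DTT. The reaction was started with 100 μM ATP, ran 60 min, and was stopped with EDTA. Microfluidic mobility-shift % conversion gave IC50.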

The target of test [2] is T2, MET D1228N (Homo sapiens, UniProt P08581, D1228N).
T2 construct: purchased Signalchem M52-12IG
Briefly: MET D1228N Mobility Shift Assay. As to conditions: biochemical assay IC50; 100 μM ATP, 60 minute kinase reaction. Put shortly:
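Enzyme at 0.313 nM preincubated 30 min at room temperature with 1.5 μM FAM-labelled peptide and 10 mM MgCl2 in HEPES buffer with DTT; reaction started with 100 μM ATP, run 60 min, stopped with EDTA. Substrate/product separated by microfluidic mobility shift; IC50 from inhibition of % conversion.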

Test [3] addresses T3, Ba/F3-TPR-MET cells (Homo sapiens, UniProt P08581).
T3 construct: fused on or other part: P12270 (Nucleoprotein TPR)
The experiment in a line: CellTiter-Glo Cell Viability Assay, Ba/F3-TPR-MET. The test is classed as cell-based. Conditions: 72 hours. In short, it runs like this:
(§1)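 Ba/F3 cells carrying TPR-MET or TPR-MET-D1228N, 3000 per well, were exposed for 72 h at 37 °C to 9-point 3-fold compound dilutions at 0.1% DMSO. Viability was read as ATP by CellTiter-Glo 2.0 luminescence, and IC50 values came from curve fitting.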
(In general: ATP-based viability assays read luminescence as a measure of living cells.)

Test [4] deals with T4, Ba/F3-TPR-MET-D1228N cells (Homo sapiens, UniProt P08581, D1228N, cells depend on it).
T4 construct: fused on or other part: P12270 (Nucleoprotein TPR)
The experiment in a line: CellTiter-Glo Cell Viability Assay, Ba/F3-TPR-MET-D1228N. The test is classed as cell-based. As to conditions: 72 hours. Put shortly:
as §1

pEC50, pIC50: −log10 of the molar value.

The term pIC50 denotes the IC50 on a negative log10 scale, so that one unit is a factor of ten. By pEC50 is commonly meant −log10 of the EC50, conventionally taken in molar units. Low values mean a high EC50, high ones a low EC50. Turning to `CNCCCOc1cc2nccc(Nc3c(F)cc(NC(=O)c4cnccc4OC)cc3F)c2cc1OC` [Example 19, N-(3,5-difluoro-4-((6-methoxy-7-(3-(methylamino)propoxy)quinolin-4-yl)amino)phenyl)-4-methoxypyridine-3-carboxamide], the pIC50 in test [1] and in test [2] was not below 7.00 each time. In addition, the pEC50 in test [3] and in test [4] was less than 5.00 each time.
With `COc1cc2nccc(Oc3c(F)cc(NC(=O)c4cnccc4OC)cc3F)c2cc1OC1(CO)CC1` [Example 132, N-(3,5-difluoro-4-((6-(1-(hydroxymethyl)cyclopropoxy)-7-methoxyquinolin-4-yl)oxy)phenyl)-4-methoxynicotinamide], the negative-log IC50 (pIC50) in test [1] and in test [2] was not below 7.00 in each case. In addition, the pEC50 in test [3] and in test [4] was not below 7.00 each time.
Turning to `CNCCOc1cc2nccc(Oc3c(F)cc(NC(=O)c4cnccc4OCCCF)cc3F)c2cc1OC` [Example 58, N-[3,5-difluoro-4-({6-methoxy-7-[2-(methylamino)ethoxy]quinolin-4-yl}oxy)phenyl]-4-(3-fluoropropoxy)pyridine-3-carboxamide], the pIC50 in test [1] and in test [2] was not below 7.00 each time. Also, the negative-log EC50 (pEC50) in test [3] and in test [4] was not below 7.00 each time.
As to `COc1cc2c(Oc3c(F)cc(NC(=O)c4cnccc4OC4CC4)cc3F)ccnc2cc1OCCCN1CCOCC1` [Example 53, 4-cyclopropoxy-N-[3,5-difluoro-4-({6-methoxy-7-[3-(morpholin-4-yl)propoxy]quinolin-4-yl}oxy)phenyl]pyridine-3-carboxamide], the negative logarithm of the IC50 (pIC50) in test [1] and in test [2] was not below 7.00 in each case. Moreover, the pEC50 in test [3] and in test [4] was not below 7.00 each time.
With `CNCCOc1cc2nccc(Oc3c(F)cc(NC(=O)c4cnccc4OCC4CC4)cc3F)c2cc1OC` [Example 72, 4-(cyclopropylmethoxy)-N-[3,5-difluoro-4-({6-methoxy-7-[2-(methylamino)ethoxy]quinolin-4-yl}oxy)phenyl]pyridine-3-carboxamide], the pIC50 in test [1] and in test [2] was not below 7.00 in each case. Also, the pEC50 in test [3] was 6.00 to 7.00; in test [4], not below 7.00.
Take `CNCCOc1cc2nccc(Oc3c(F)cc(NC(=O)c4cnccc4OC4CC4)c(F)c3F)c2cc1OC` [Example 93, 4-cyclopropoxy-N-[2,3,5-trifluoro-4-({6-methoxy-7-[2-(methylamino)ethoxy]quinolin-4-yl}oxy)phenyl]pyridine-3-carboxamide]: the pIC50 in test [1] and in test [2] was not below 7.00 throughout. Further, the pEC50 in test [3] and in test [4] was not below 7.00 in each case.
As to “(S)-N-(4-((7-(2-aminopropoxy)quinolin-4-yl)oxy)-3,5-difluorophenyl)-4-cyclopropoxypyridine-3-carboxamide [Example 12]”, the pIC50 in test [1] and in test [2] was not below 7.00 throughout. For the same compound, the pEC50 in test [3] and in test [4] was not below 7.00 each time.
As for `COc1cc2c(Oc3c(F)cc(NC(=O)c4cnccc4OC)cc3F)ccnc2cc1OC(F)(F)F` [Example 37, N-(3,5-difluoro-4-((6-methoxy-7-(trifluoromethoxy)quinolin-4-yl)oxy)phenyl)-4-methoxypyridine-3-carboxamide], the pIC50 in test [1] and in test [2] was not below 7.00 throughout. Moreover, the negative logarithm of the EC50 (pEC50) in test [3] and in test [4] was 6.00 to 7.00 throughout.
Consider `CNCCOc1cc2nccc(Oc3c(F)cc(NC(=O)c4cnc(F)cc4OC)cc3F)c2cc1OC` [Example 44, N-(3,5-difluoro-4-((6-methoxy-7-(2-(methylamino)ethoxy)quinolin-4-yl)oxy)phenyl)-6-fluoro-4-methoxypyridine-3-carboxamide], for which the negative logarithm of the IC50 (pIC50) in test [1] and in test [2] was not below 7.00 each time. Moreover, the negative logarithm of the EC50 (pEC50) in test [3] and in test [4] was 6.00 to 7.00 each time.
With `CCOc1ccnc(F)c1C(=O)Nc1cc(F)c(Oc2ccnc3cc(OCCCNC)c(OC)cc23)c(F)c1` [Example 119], the pIC50 in test [1] and in test [2] was not below 7.00 throughout. The negative-log EC50 (pEC50) in test [3] and in test [4] was 6.00 to 7.00 throughout.
For the compound `COC[C@H](C)Oc1nc2c(Oc3c(F)cc(NC(=O)c4cnccc4OC)cc3F)ccnc2cc1OC` [Example 146, (S)-N-(3,5-difluoro-4-((7-methoxy-6-((1-methoxypropan-2-yl)oxy)-1,5-naphthyridin-4-yl)oxy)phenyl)-4-methoxynicotinamide], the negative-log IC50 (pIC50) in test [1] and in test [2] was not below 7.00 throughout. In addition, the pEC50 in test [3] and in test [4] was not below 7.00 in each case.
Take `COc1cc(OC2CC2)c(C(=O)Nc2cc(F)c(Oc3ccnc4cc(OCCO)c(OC)cc34)c(F)c2)cn1` [Example 111, 4-cyclopropoxy-N-(3,5-difluoro-4-((7-(2-hydroxyethoxy)-6-methoxyquinolin-4-yl)oxy)phenyl)-6-methoxypyridine-3-carboxamide]: the pIC50 in test [1] and in test [2] was not below 7.00 throughout. The pEC50 in test [3] and in test [4] was not below 7.00 throughout.
For the compound `CNCCOc1cc2nccc(Oc3c(F)cc(NC(=O)c4cnccc4OC)cc3Cl)c2cc1OC` [Example 6, N-(3-chloro-5-fluoro-4-((6-methoxy-7-(2-(methylamino)ethoxy)quinolin-4-yl)oxy)phenyl)-4-methoxypyridine-3-carboxamide], the negative logarithm of the IC50 (pIC50) in test [1] and in test [2] was not below 7.00 in each case. The pEC50 in test [3] and in test [4] was 6.00 to 7.00 throughout.
On to `COCCOc1cc2nccc(Oc3c(F)cc(NC(=O)c4cnccc4OC4CC4)cc3F)c2nc1OC` [Example 136, 4-cyclopropoxy-N-(3,5-difluoro-4-{[6-methoxy-7-(2-methoxyethoxy)-1,5-naphthyridin-4-yl]oxy}phenyl)pyridine-3-carboxamide], for which the pIC50 in test [1] and in test [2] was not below 7.00 in each case. In addition, the negative-log EC50 (pEC50) in test [3] and in test [4] was not below 7.00 in each case.
For `CNCCOc1cc2nccc(Oc3c(F)cc(NC(=O)c4cnc(Cl)cc4OC)cc3F)c2cc1OC` [Example 3, 6-chloro-N-(3,5-difluoro-4-((6-methoxy-7-(2-(methylamino)ethoxy)quinolin-4-yl)oxy)phenyl)-4-methoxypyridine-3-carboxamide], the pIC50 in test [1] and in test [2] was not below 7.00 each time. Moreover, the figures for the negative-log EC50 (pEC50) in test [3] and in test [4] were not below 7.00 and 6.00 to 7.00, respectively.
“(R)-N-(4-((7-(2-aminopropoxy)quinolin-4-yl)oxy)-3,5-difluorophenyl)-4-cyclopropoxypyridine-3-carboxamide [Example 13]”: the negative logarithm of the IC50 (pIC50) in test [1] and in test [2] was not below 7.00 in each case. For the same compound, the negative-log EC50 (pEC50) in test [3] was 6.00 to 7.00; in test [4] it was not below 7.00.
For `O=C(Nc1cc(F)c(Oc2ccnc3cc(OCCO)ccc23)c(F)c1)c1cnccc1OC1CC1` [Example 100, 4-cyclopropoxy-N-(3,5-difluoro-4-{[7-(2-hydroxyethoxy)quinolin-4-yl]oxy}phenyl)pyridine-3-carboxamide], the pIC50 in test [1] and in test [2] was not below 7.00 throughout. The negative logarithm of the EC50 (pEC50) is 6.00 to 7.00 in test [3] and not below 7.00 in test [4].
Turning to `COc1ccncc1C(=O)Nc1cc(F)c(Oc2ccnc3cc(OC)c(O[C@@H](C)CO)nc23)c(F)c1` [Example 145, (S)-N-(3,5-difluoro-4-((6-((1-hydroxypropan-2-yl)oxy)-7-methoxy-1,5-naphthyridin-4-yl)oxy)phenyl)-4-methoxynicotinamide], the negative logarithm of the IC50 (pIC50) in test [1] and in test [2] was not below 7.00 in each case. Moreover, the pEC50 in test [3] and in test [4] was not below 7.00 throughout.
For the compound `CNCCOc1cc2nccc(Oc3c(F)cc(NC(=O)c4cnccc4OC)c(F)c3F)c2cc1OC` [Example 50, 4-methoxy-N-(2,3,5-trifluoro-4-((6-methoxy-7-(2-(methylamino)ethoxy)quinolin-4-yl)oxy)phenyl)pyridine-3-carboxamide], the pIC50 in test [1] and in test [2] was not below 7.00 in each case. Moreover, the pEC50 in test [3] and in test [4] was not below 7.00 each time.
